What was measured:
Assay type in all cases: functional
HT-29 [1] = assay: Cytotoxicity against human HT-29 cells assessed as cell growth at 0.1 uM incubated for 48 hrs by sulforhodamine B assay relative to control; conditions: HT-29, 48 h, read-out: Activity
DU-145 = assay: Cytotoxicity against human DU145 cells assessed as cell growth at 0.01 uM incubated for 48 hrs by sulforhodamine B assay relative to control; conditions: DU-145, 48 h, read-out: Activity
IGROV-1 = assay: Cytotoxicity against human IGROV1 cells assessed as cell growth at 0.01 uM incubated for 48 hrs by sulforhodamine B assay relative to control; conditions: IGROV-1, 48 h, read-out: Activity
SW-620 [2] = assay: Cytotoxicity against human SW620 cells incubated for 48 hrs by sulforhodamine B assay; conditions: SW-620, 48 h
MDA-MB-231 = assay: Cytotoxicity against human MDA-MB-231 cells assessed as cell growth at 1 uM incubated for 48 hrs by sulforhodamine B assay relative to control; conditions: MDA-MB-231, 48 h, read-out: Activity
OVCAR-8 [3] = assay: Cytotoxicity against human OVCAR8 cells assessed as cell growth at 10 uM incubated for 48 hrs by sulforhodamine B assay relative to control; conditions: OVCAR-8, 48 h, read-out: Activity
SF-539 = assay: Cytotoxicity against human SF539 cells assessed as cell growth at 0.01 uM incubated for 48 hrs by sulforhodamine B assay relative to control; conditions: SF-539, 48 h, read-out: Activity
Hs-578T [4] = assay: Cytotoxicity against human Hs 578T cells incubated for 48 hrs by sulforhodamine B assay
OVCAR-3 [5] = assay: Cytotoxicity against human OVCAR3 cells assessed as cell growth at 1 uM incubated for 48 hrs by sulforhodamine B assay relative to control; conditions: OVCAR-3, 48 h, read-out: Activity
NCI-H226 = assay: Cytotoxicity against human NCI-H226 cells assessed as cell growth at 100 uM incubated for 48 hrs by sulforhodamine B assay relative to control; conditions: NCI-H226, 48 h, read-out: Activity
Malme-3M = assay: Cytotoxicity against human MALME-3M cells assessed as cell growth at 1 uM incubated for 48 hrs by sulforhodamine B assay relative to control; conditions: read-out: Activity
SK-MEL-28 = assay: Cytotoxicity against human SK-MEL-28 cells assessed as cell growth at 0.01 uM incubated for 48 hrs by sulforhodamine B assay relative to control; conditions: SK-MEL-28, 48 h, read-out: Activity
UACC-62 = assay: Cytotoxicity against human UACC62 cells assessed as cell growth at 0.01 uM incubated for 48 hrs by sulforhodamine B assay relative to control; conditions: UACC-62, 48 h, read-out: Activity
HT-29 [6] = assay: Cytotoxicity against human HT-29 cells assessed as cell growth at 100 uM incubated for 48 hrs by sulforhodamine B assay relative to control; conditions: HT-29, 48 h, read-out: Activity
K562 = assay: Cytotoxicity against human K562 cells assessed as cell growth at 10 uM incubated for 48 hrs by sulforhodamine B assay relative to control; conditions: K562, 48 h, read-out: Activity
SN12C = assay: Cytotoxicity against human SN12C cells assessed as cell growth at 100 uM incubated for 48 hrs by sulforhodamine B assay relative to control; conditions: read-out: Activity
Hs-578T [7] = assay: Cytotoxicity against human Hs 578T cells assessed as cell growth at 10 uM incubated for 48 hrs by sulforhodamine B assay relative to control; conditions: read-out: Activity
OVCAR-8 [8] = assay: Cytotoxicity against human OVCAR8 cells assessed as cell growth at 1 uM incubated for 48 hrs by sulforhodamine B assay relative to control; conditions: OVCAR-8, 48 h, read-out: Activity
NCI-H460 = assay: Cytotoxicity against human NCI-H460 cells assessed as cell growth at 100 uM incubated for 48 hrs by sulforhodamine B assay relative to control; conditions: NCI-H460, 48 h, read-out: Activity
OVCAR-3 [9] = assay: Cytotoxicity against human OVCAR3 cells incubated for 48 hrs by sulforhodamine B assay; conditions: OVCAR-3, 48 h
TK-10 = assay: Cytotoxicity against human TK10 cells incubated for 48 hrs by sulforhodamine B assay; conditions: TK-10, 48 h
M14 = assay: Cytotoxicity against human M14 cells assessed as cell growth at 1 uM incubated for 48 hrs by sulforhodamine B assay relative to control; conditions: M14, 48 h, read-out: Activity
NCI-H322M = assay: Cytotoxicity against human NCI-H322M cells incubated for 48 hrs by sulforhodamine B assay
SF-295 = assay: Cytotoxicity against human SF295 cells incubated for 48 hrs by sulforhodamine B assay; conditions: SF-295, 48 h
SR = assay: Cytotoxicity against human SR cells assessed as cell growth at 1 uM incubated for 48 hrs by sulforhodamine B assay relative to control; conditions: read-out: Activity
MDA-MB-468 = assay: Cytotoxicity against human MDA-MB-468 cells incubated for 48 hrs by sulforhodamine B assay; conditions: MDA-MB-468, 48 h
CCRF-CEM = assay: Cytotoxicity against human CCRF-CEM cells assessed as cell growth at 100 uM incubated for 48 hrs by sulforhodamine B assay relative to control; conditions: read-out: Activity
MCF7 = assay: Cytotoxicity against human MCF7 cells assessed as cell growth at 0.1 uM incubated for 48 hrs by sulforhodamine B assay relative to control; conditions: MCF7, 48 h, read-out: Activity
HCT-116 = assay: Cytotoxicity against human HCT116 cells assessed as cell growth at 0.1 uM incubated for 48 hrs by sulforhodamine B assay relative to control; conditions: HCT-116, 48 h, read-out: Activity
SW-620 [10] = assay: Cytotoxicity against human SW620 cells assessed as cell growth at 0.01 uM incubated for 48 hrs by sulforhodamine B assay relative to control; conditions: SW-620, 48 h, read-out: Activity
[11] = read-out: LC50 (the source's name)
[12] = read-out: pLC50 (the source's name) (converted)

Q: What does the source list for `COc1ccc(-c2nocc2-c2cc(OC)c(OC)c(OC)c2)cc1`?
A: growth at 0.1 µM (HT-29 [1]): 13%; growth at 0.01 µM (DU-145): 99%; growth at 0.01 µM (IGROV-1): 97%; GI50 (SW-620 [2]; read-out: GI50): 50.9 nM; CC50 (SW-620 [2]; [11]): > 100 µM; TGI (SW-620 [2]; read-out: TGI): > 100 µM; GI50 (SW-620 [2]; read-out: pGI50 (converted)): 51.3 nM; CC50 (SW-620 [2]; [12]): > 100 µM; TGI (SW-620 [2]; read-out: pTGI): > 100 µM; growth at 1 µM (MDA-MB-231): 38%; growth at 10 µM (OVCAR-8 [3]): 25%; growth at 0.01 µM (SF-539): 86%; GI50 (Hs-578T [4]; read-out: GI50): 396 nM; CC50 (Hs-578T [4]; [11]): > 100 µM; TGI (Hs-578T [4]; read-out: TGI): > 100 µM; GI50 (Hs-578T [4]; read-out: pGI50 (converted)): 398 nM; CC50 (Hs-578T [4]; [12]): > 100 µM; TGI (Hs-578T [4]; read-out: pTGI): > 100 µM; growth at 1 µM (OVCAR-3 [5]): 1%; growth at 100 µM (NCI-H226): -20%; growth at 1 µM (Malme-3M): 46%; growth at 0.01 µM (SK-MEL-28): 94%; growth at 0.01 µM (UACC-62): 90%; growth at 100 µM (HT-29 [6]): -36%; growth at 10 µM (K562): 9%; growth at 100 µM (SN12C): -1%; growth at 10 µM (Hs-578T [7]): 28%; growth at 1 µM (OVCAR-8 [8]): 27%; growth at 100 µM (NCI-H460): -37%; GI50 (OVCAR-3 [9]; read-out: GI50): 38.6 nM; LC50 (50% lethal concentration) (OVCAR-3 [9]; read-out: LC50): > 100 µM; TGI (OVCAR-3 [9]; read-out: TGI): 1320 nM; GI50 (OVCAR-3 [9]; read-out: pGI50 (converted)): 38.9 nM; LC50 (50% lethal concentration) (OVCAR-3 [9]; read-out: pLC50 (converted)): > 100 µM; TGI (OVCAR-3 [9]; read-out: pTGI (converted)): 1320 nM; GI50 (TK-10; read-out: GI50): 79.2 nM; CC50 (TK-10; [11]): > 100 µM; TGI (TK-10; read-out: TGI): 43.1 µM; GI50 (TK-10; read-out: pGI50 (converted)): 79.4 nM; CC50 (TK-10; [12]): > 100 µM; TGI (TK-10; read-out: pTGI (converted)): 42.7 µM; growth at 1 µM (M14): 12%; GI50 (NCI-H322M; read-out: GI50): 737 nM; LC50 (NCI-H322M; read-out: LC50): > 100 µM; TGI (NCI-H322M; read-out: TGI): > 100 µM; GI50 (NCI-H322M; read-out: pGI50 (converted)): 741 nM; LC50 (NCI-H322M; read-out: pLC50 (converted)): > 100 µM; TGI (NCI-H322M; read-out: pTGI): > 100 µM; GI50 (SF-295; read-out: GI50): 50.5 nM; CC50 (SF-295; [11]): > 100 µM; TGI (SF-295; read-out: TGI): 13.1 µM; GI50 (SF-295; read-out: pGI50 (converted)): 50.1 nM; CC50 (SF-295; [12]): > 100 µM; TGI (SF-295; read-out: pTGI (converted)): 13.2 µM; growth at 1 µM (SR): 30%; GI50 (MDA-MB-468; read-out: GI50): 123 nM; LC50 (MDA-MB-468; read-out: LC50): > 100 µM; TGI (MDA-MB-468; read-out: TGI): 13.8 µM; GI50 (MDA-MB-468; read-out: pGI50 (converted)): 123 nM; LC50 (MDA-MB-468; read-out: pLC50 (converted)): > 100 µM; TGI (MDA-MB-468; read-out: pTGI (converted)): 13.8 µM; growth at 100 µM (CCRF-CEM): 4%; growth at 0.1 µM (MCF7): 27%; growth at 0.1 µM (HCT-116): 21%; growth at 0.01 µM (SW-620 [10]): 94%

— ChEMBL document CHEMBL4145521, “Regioselective synthesis of 3,4-diaryl-5-unsubstituted isoxazoles, analogues of natural cytostatic combretastatin A4” (Eur J Med Chem, 2018)
